Source: PMC10838953

Columns and labels:
[1] = target: FLT3(K663Q) (Homo sapiens, UniProt P36888, K663Q); experiment: biochemical; conditions: read-out: %Ctrl @ 2000nM
[2] = target: PIM1 (Homo sapiens, UniProt P11309); experiment: biochemical; conditions: read-out: %Ctrl @ 2000nM
[3] = target: TAOK3 (Homo sapiens, UniProt Q9H2K8); experiment: biochemical; conditions: read-out: %Ctrl @ 2000nM
[4] = target: PRKG2 (Homo sapiens, UniProt Q13237); experiment: biochemical; conditions: read-out: %Ctrl @ 2000nM
[5] = target: NEK10 (Homo sapiens, UniProt Q6ZWH5); experiment: biochemical; conditions: read-out: %Ctrl @ 2000nM
[6] = target: EGFR (Homo sapiens, UniProt P00533); experiment: biochemical; conditions: read-out: %Ctrl @ 2000nM
[7] = target: WNK1 (Homo sapiens, UniProt Q9H4A3); experiment: biochemical; conditions: read-out: %Ctrl @ 2000nM
[8] = target: IRAK4 (Homo sapiens, UniProt Q9NWZ3); experiment: biochemical; conditions: read-out: %Ctrl @ 2000nM
[9] = target: RIOK1 (Homo sapiens, UniProt Q9BRS2); experiment: biochemical; conditions: read-out: %Ctrl @ 2000nM
[10] = target: BRSK2 (Homo sapiens, UniProt Q8IWQ3); experiment: biochemical; conditions: read-out: %Ctrl @ 2000nM
[11] = target: RPS6KA4(Kin.Dom.1-N-terminal) (Homo sapiens, UniProt O75676); experiment: biochemical; conditions: read-out: %Ctrl @ 2000nM
[12] = target: WNK2 (Homo sapiens, UniProt Q9Y3S1); experiment: biochemical; conditions: read-out: %Ctrl @ 2000nM
[13] = tested on: CK2 in HEK293 cells; conditions: read-out: IC50 CK2 activity in cell extracts
[14] = target: FLT3-autoinhibited (Homo sapiens, UniProt P36888); experiment: biochemical; conditions: read-out: %Ctrl @ 2000nM
[15] = target: LATS1 (Homo sapiens, UniProt O95835); experiment: biochemical; conditions: read-out: %Ctrl @ 2000nM
[16] = target: EPHA6 (Homo sapiens, UniProt Q9UF33); experiment: biochemical; conditions: read-out: %Ctrl @ 2000nM
[17] = target: INSRR (Homo sapiens, UniProt P14616); experiment: biochemical; conditions: read-out: %Ctrl @ 2000nM
[18] = target: ERN1 (Homo sapiens, UniProt O75460); experiment: biochemical; conditions: read-out: %Ctrl @ 2000nM
[19] = target: NEK11 (Homo sapiens, UniProt Q8NG66); experiment: biochemical; conditions: read-out: %Ctrl @ 2000nM
[20] = target: ACVR1 (Homo sapiens, UniProt Q04771); experiment: biochemical; conditions: read-out: %Ctrl @ 2000nM
[21] = target: BRAF(V600E) (Homo sapiens, UniProt P15056, V600E); experiment: biochemical; conditions: read-out: %Ctrl @ 2000nM
[22] = target: CDK8 (Homo sapiens, UniProt P49336); experiment: biochemical; conditions: read-out: %Ctrl @ 2000nM
[23] = target: EPHA5 (Homo sapiens, UniProt P54756); experiment: biochemical; conditions: read-out: %Ctrl @ 2000nM
[24] = target: MEK4 (Homo sapiens, UniProt P45985); experiment: biochemical; conditions: read-out: %Ctrl @ 2000nM
[25] = target: NIM1 (Homo sapiens, UniProt Q8IY84); experiment: biochemical; conditions: read-out: %Ctrl @ 2000nM
[26] = target: BMX (Homo sapiens, UniProt P51813); experiment: biochemical; conditions: read-out: %Ctrl @ 2000nM
[27] = target: PKAC-alpha (Homo sapiens, UniProt P17612); experiment: biochemical; conditions: read-out: %Ctrl @ 2000nM
[28] = target: INSR (Homo sapiens, UniProt P06213); experiment: biochemical; conditions: read-out: %Ctrl @ 2000nM
[29] = tested on: FLT3(ITD,D835V)
[30] = target: MARK4 (Homo sapiens, UniProt Q96L34); experiment: biochemical; conditions: read-out: %Ctrl @ 2000nM
[31] = target: MAPKAPK5 (Homo sapiens, UniProt Q8IW41); experiment: biochemical; conditions: read-out: %Ctrl @ 2000nM
[32] = target: KIT(D816H) (Homo sapiens, UniProt P10721, D816H); experiment: biochemical; conditions: read-out: %Ctrl @ 2000nM
[33] = target: DCAMKL3 (Homo sapiens, UniProt Q9C098); experiment: biochemical; conditions: read-out: %Ctrl @ 2000nM
[34] = target: LOK (Homo sapiens, UniProt O94804); experiment: biochemical; conditions: read-out: %Ctrl @ 2000nM
[35] = target: CDK4-cyclinD1 (Homo sapiens, UniProt P11802); experiment: biochemical; conditions: read-out: %Ctrl @ 2000nM
[36] = target: RSK2(Kin.Dom.2-C-terminal) (Homo sapiens, UniProt P51812); experiment: biochemical; conditions: read-out: %Ctrl @ 2000nM
[37] = target: SNARK (Homo sapiens, UniProt Q9H093); experiment: biochemical; conditions: read-out: %Ctrl @ 2000nM
[38] = target: CDK4-cyclinD3 (Homo sapiens, UniProt P11802); experiment: biochemical; conditions: read-out: %Ctrl @ 2000nM
[39] = target: CSF1R-autoinhibited (Homo sapiens, UniProt P07333); experiment: biochemical; conditions: read-out: %Ctrl @ 2000nM
[40] = tested on: p38 MAPK (T180/Y182); conditions: HEK293 cells; 48 h
[41] = target: PLK1 (Homo sapiens, UniProt P53350); experiment: biochemical; conditions: read-out: %Ctrl @ 2000nM
[42] = tested on: FLT3(ITD,F691L)
[43] = target: DCAMKL2 (Homo sapiens, UniProt Q8N568); experiment: biochemical; conditions: read-out: %Ctrl @ 2000nM

Chain of PLK1 (P53350 whole entry): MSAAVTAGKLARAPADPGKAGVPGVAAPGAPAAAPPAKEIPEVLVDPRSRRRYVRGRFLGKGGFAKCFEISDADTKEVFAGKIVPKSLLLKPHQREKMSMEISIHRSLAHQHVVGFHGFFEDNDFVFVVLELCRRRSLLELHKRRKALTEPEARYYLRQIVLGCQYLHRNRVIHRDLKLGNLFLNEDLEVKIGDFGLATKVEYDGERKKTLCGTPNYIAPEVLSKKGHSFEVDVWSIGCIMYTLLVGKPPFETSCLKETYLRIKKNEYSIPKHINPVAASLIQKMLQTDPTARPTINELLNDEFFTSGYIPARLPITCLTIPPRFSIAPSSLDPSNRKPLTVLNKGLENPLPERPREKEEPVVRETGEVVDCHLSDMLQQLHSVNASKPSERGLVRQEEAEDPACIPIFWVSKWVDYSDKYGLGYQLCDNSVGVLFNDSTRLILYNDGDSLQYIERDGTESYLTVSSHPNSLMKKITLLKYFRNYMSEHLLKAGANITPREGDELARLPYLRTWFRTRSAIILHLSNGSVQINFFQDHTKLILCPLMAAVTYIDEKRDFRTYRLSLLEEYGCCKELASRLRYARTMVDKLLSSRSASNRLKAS
Chain of INSR (P06213 28-1382): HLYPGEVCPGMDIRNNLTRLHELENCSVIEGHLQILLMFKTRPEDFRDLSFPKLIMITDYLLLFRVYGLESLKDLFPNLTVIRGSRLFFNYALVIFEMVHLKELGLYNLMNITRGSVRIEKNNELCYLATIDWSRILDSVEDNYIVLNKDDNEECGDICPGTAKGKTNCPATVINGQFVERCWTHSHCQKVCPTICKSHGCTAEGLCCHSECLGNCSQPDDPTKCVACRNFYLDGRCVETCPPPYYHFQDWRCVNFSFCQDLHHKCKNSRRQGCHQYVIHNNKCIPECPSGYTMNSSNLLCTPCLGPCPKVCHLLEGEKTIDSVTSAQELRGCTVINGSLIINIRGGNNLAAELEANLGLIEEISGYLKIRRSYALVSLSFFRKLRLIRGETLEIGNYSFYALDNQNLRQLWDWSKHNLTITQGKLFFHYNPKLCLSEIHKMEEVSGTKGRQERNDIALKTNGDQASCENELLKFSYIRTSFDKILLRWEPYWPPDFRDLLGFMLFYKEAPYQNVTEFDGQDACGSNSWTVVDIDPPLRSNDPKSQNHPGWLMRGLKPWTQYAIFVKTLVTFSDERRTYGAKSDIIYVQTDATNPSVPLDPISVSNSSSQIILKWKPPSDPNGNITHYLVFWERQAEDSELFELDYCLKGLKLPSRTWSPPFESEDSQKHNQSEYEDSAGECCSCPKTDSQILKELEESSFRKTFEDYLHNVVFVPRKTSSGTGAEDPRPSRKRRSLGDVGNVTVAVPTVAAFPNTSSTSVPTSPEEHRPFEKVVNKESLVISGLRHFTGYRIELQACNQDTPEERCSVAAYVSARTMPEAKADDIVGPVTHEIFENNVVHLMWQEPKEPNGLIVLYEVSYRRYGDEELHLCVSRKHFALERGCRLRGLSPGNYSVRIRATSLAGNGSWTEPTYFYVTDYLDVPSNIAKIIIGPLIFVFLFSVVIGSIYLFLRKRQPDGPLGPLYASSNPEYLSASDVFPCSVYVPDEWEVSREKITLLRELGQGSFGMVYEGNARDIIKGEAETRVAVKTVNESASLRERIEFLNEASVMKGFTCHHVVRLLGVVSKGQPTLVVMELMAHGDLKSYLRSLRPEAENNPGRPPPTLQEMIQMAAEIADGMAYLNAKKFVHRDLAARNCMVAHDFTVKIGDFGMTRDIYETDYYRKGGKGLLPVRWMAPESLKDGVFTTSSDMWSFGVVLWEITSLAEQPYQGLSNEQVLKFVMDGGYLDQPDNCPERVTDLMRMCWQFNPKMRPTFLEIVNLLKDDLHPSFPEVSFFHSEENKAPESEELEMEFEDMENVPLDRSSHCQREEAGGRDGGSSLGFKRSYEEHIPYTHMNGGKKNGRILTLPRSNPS
Chain of CDK8 (P49336 whole entry): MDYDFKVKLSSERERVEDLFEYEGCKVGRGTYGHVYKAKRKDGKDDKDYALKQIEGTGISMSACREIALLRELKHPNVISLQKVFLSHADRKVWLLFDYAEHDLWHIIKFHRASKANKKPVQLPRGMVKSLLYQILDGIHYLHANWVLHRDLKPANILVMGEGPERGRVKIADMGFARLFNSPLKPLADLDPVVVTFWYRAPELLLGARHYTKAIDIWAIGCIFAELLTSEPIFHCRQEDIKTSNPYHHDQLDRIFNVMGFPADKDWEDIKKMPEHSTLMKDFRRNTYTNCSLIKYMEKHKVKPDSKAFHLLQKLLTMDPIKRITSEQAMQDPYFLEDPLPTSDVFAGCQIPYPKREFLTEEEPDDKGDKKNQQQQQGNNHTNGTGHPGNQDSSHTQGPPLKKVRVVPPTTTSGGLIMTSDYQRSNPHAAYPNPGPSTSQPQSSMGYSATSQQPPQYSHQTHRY
Chain of EPHA6 (Q9UF33 23-1036): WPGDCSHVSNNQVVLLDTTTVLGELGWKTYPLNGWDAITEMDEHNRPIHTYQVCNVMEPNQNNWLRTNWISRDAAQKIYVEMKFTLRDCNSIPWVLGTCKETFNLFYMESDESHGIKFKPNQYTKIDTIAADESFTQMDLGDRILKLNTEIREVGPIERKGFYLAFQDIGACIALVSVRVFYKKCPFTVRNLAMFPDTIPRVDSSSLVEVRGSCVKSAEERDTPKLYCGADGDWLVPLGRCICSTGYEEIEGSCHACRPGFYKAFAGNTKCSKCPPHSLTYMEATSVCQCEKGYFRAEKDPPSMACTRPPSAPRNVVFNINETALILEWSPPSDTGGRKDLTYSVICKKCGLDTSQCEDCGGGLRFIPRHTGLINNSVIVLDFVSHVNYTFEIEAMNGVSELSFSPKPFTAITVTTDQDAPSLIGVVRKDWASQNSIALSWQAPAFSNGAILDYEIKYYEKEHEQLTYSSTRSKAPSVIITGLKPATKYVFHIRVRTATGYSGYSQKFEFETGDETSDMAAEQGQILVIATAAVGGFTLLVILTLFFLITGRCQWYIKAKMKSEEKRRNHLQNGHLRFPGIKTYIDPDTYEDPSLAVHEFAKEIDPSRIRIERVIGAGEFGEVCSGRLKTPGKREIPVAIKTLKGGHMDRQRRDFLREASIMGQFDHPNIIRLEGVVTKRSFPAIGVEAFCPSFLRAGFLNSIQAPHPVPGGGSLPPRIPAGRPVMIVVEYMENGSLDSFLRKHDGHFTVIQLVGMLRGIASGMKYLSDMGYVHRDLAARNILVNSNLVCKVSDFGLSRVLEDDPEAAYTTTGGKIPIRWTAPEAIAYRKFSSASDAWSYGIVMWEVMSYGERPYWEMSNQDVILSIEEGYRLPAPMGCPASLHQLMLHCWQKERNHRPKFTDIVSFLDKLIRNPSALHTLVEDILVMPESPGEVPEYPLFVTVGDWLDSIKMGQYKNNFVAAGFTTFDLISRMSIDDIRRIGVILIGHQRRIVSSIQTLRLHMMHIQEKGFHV
Chain of LATS1 (O95835 whole entry): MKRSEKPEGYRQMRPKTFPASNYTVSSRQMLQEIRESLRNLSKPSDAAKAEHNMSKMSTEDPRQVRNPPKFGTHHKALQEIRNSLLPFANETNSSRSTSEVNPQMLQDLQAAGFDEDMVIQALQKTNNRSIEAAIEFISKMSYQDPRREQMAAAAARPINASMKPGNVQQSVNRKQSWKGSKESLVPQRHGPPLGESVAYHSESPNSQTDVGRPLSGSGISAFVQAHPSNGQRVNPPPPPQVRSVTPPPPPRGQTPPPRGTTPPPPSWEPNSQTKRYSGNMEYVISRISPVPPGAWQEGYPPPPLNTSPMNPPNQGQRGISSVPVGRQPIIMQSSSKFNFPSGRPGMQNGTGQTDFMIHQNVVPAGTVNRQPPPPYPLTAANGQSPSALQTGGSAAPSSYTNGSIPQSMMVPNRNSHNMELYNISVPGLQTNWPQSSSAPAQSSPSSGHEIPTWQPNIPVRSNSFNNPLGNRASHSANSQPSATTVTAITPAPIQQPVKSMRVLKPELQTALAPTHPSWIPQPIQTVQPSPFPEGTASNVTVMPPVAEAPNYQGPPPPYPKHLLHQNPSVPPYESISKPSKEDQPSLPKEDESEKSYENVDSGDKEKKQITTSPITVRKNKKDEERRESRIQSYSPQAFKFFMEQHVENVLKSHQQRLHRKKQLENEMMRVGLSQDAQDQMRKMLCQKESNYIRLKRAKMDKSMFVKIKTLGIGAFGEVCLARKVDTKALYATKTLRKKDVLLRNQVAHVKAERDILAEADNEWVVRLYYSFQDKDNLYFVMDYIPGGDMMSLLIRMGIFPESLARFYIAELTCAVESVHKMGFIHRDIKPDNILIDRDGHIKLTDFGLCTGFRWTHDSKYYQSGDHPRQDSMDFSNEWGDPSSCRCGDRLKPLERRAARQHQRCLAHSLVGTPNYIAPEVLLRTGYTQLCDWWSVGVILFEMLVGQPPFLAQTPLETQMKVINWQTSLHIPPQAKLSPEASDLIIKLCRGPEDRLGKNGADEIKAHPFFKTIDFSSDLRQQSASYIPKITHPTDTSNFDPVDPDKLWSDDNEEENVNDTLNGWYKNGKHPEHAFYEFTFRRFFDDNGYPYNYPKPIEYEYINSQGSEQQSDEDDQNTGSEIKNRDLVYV
Chain of ACVR1 (Q04771 21-509): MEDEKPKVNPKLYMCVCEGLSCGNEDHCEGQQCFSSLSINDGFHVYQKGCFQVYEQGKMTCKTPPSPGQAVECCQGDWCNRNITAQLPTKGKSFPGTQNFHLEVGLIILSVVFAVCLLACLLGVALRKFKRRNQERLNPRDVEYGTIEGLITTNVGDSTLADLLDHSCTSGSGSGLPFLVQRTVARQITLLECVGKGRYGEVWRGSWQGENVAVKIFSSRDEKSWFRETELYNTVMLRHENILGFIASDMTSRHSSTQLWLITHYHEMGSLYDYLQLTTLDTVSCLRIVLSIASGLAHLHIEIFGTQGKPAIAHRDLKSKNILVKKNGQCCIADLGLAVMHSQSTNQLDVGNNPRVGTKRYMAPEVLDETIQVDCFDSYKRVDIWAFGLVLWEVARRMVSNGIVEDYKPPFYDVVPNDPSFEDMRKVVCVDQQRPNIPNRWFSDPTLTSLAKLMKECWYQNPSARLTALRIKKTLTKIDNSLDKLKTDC

Which results are given for `CC(C)COC(=O)c1[nH]c2ccc(F)cc2c1-c1cn(CC2CCN(CCNS(=O)(=O)c3ccc(CC(C)C)cc3)CC2)nn1` [AB668, isobutyl 5-fluoro-3-(1-((1-(2-((4-isobutylphenyl)sulfonamido)ethyl)piperidin-4-yl)methyl)-1H-1,2,3-triazol-4-yl)-1H-indole-2-carboxylate]?
remaining activity at 2 µM [1]: 96%; remaining activity at 2 µM [2]: 91%; remaining activity at 2 µM [3]: 100%; remaining activity at 2 µM [4]: 97%; remaining activity at 2 µM [5]: 80%; remaining activity at 2 µM [6]: 92%; remaining activity at 2 µM [7]: 100%; remaining activity at 2 µM [8]: 92%; remaining activity at 2 µM [9]: 80%; remaining activity at 2 µM [10]: 79%; remaining activity at 2 µM [11]: 88%; remaining activity at 2 µM [12]: 87%; IC50 [13]: 600 ± 110 nM; remaining activity at 2 µM [14]: 100%; remaining activity at 2 µM [15]: 100%; remaining activity at 2 µM [16]: 83%; remaining activity at 2 µM [17]: 93%; remaining activity at 2 µM [18]: 100%; remaining activity at 2 µM [19]: 100%; remaining activity at 2 µM [20]: 100%; remaining activity at 2 µM [21]: 100%; remaining activity at 2 µM [22]: 81%; remaining activity at 2 µM [23]: 100%; remaining activity at 2 µM [24]: 89%; remaining activity at 2 µM [25]: 84%; remaining activity at 2 µM [26]: 85%; remaining activity at 2 µM [27]: 84%; remaining activity at 2 µM [28]: 97%; %Ctrl @ 2000nM [29]: 77%; remaining activity at 2 µM [30]: 87%; remaining activity at 2 µM [31]: 95%; remaining activity at 2 µM [32]: 58%; remaining activity at 2 µM [33]: 91%; remaining activity at 2 µM [34]: 100%; remaining activity at 2 µM [35]: 84%; remaining activity at 2 µM [36]: 81%; remaining activity at 2 µM [37]: 94%; remaining activity at 2 µM [38]: 96%; remaining activity at 2 µM [39]: 85%; p38 activation [40]: activated in both cell types; remaining activity at 2 µM [41]: 100%; %Ctrl @ 2000nM [42]: 96%; remaining activity at 2 µM [43]: 93%
